Results: patent US20130197059A1, “INTEGRIN ANTAGONIST CONJUGATES FOR TARGETED DELIVERY TO CELLS EXPRESSING LFA-1” (Hoffmann-La Roche Inc., priority 2012, published 2013)
Read-outs that look alike come from different tables or passages of the source.

What was measured:
sLFA-1/ICAM-1 = target: T1, sLFA-1/ICAM-1 (Homo sapiens, UniProt P05107+P20701); test: sLFA-1/ICAM-1 ELISA (LFA1 Adhesion Assay); format: binding
T1 construct: 2.0 ug/ml solution of sLFA-1 or Mac-1 receptor
Description: The following assay was conducted to assess effect of targeted molecules on the sLFA-1/ICAM-1 ELISA and Mac-1/ICAM-1 interactions.
Plates were coated with either 50 μl/well of 2.0 ug/ml solution of sLFA-1 or Mac-1 receptor in divalent cation buffer (1 mM MnCI2, 0.14M NaCl, 20 mM HEPES pH 7.2) at 4° C. overnight. Two hundred fifty μl of blocking buffer (1% BSA in divalent cation buffer) was added to each well 1 hour at 37° C. Plates were washed 3 times with wash buffer (TBS/0.05% Tween-20/1 mM MnCl2). The compound to be tested was solubilized in DMSO. […] Fifty μl of binding buffer (0.5% BSA in divalent cation buffer)/1% DMSO and 50 μl of the solutions to be tested were added to the appropriate wells and incubated for 1 hour. Fifty μl of 5dICAM-Fc (27 ng/ml) was added to the appropriate wells and 50 μl binding buffer was added to non-specific binding wells and incubated for 2 hours and washed. One hundred μl of 1:4000 HRP-goat anti-huIgG was added to each well and incubated for 1 hour and washed. One hundred μl of 1:1 TMB solution was added to each well and developed for 20 min at room temperature. Color development was stopped by adding 100 μl H3PO4 to each well. Absorbance was measured at 450 nm.

AHA1 mRNA = test: Knock-down of AHA1 mRNA by 5′-sense strand modified siRNA (Branched DNA Assay); format: cell-based; conditions: H1299 cells, siRNA 50 nM, DharmaFect-1 reverse transfection, 48 hours
Description: Assay of 5′-Sense Strand Modified siRNA for Knock-Down of AHA1 mRNA in Cellular Systems
Reference gene: GAPDH Cell line: H1299_Nut-One Plating density: 5,000 cells/well Plating format: 96-well Time from plating to treatment: 0 Control treatment: mock, untreated, control siRNA Transfection reagent: DharmaFectl
TF Reagent volume/well […] siRNA final concentration 50 nM Assay method: Day 1 manual/Day 2 Washer
Reverse transfection: H1299 cells were transfected with indicated siRNA at final concentration of 50 nM using DharmaFect-1 transfection reagent at 0.15 μl/well. Cells were then plated into 96-well plate at 5000 cells/well and incubated at 37° C. for 48 hours.
The efficacy of siRNA knock-down was measured with a Branched DNA Assay as reported by the vendor; the results of such knockdown are shown in FIG. 5. The relative cell viability was assessed by the absolute expression of GAPDH in the same well (FIG. 6).

Jurkat Cells/VCAM-1 = Jurkat Cells/VCAM-1 Adhesion Assay; format: cell-based; conditions: Table 4
[1] = Table 4, read-out: LFA1 Adhesion Assay
[2] = control compounds, read-out: IC50

T1 sequence (P20701 26-1090 limits assumed): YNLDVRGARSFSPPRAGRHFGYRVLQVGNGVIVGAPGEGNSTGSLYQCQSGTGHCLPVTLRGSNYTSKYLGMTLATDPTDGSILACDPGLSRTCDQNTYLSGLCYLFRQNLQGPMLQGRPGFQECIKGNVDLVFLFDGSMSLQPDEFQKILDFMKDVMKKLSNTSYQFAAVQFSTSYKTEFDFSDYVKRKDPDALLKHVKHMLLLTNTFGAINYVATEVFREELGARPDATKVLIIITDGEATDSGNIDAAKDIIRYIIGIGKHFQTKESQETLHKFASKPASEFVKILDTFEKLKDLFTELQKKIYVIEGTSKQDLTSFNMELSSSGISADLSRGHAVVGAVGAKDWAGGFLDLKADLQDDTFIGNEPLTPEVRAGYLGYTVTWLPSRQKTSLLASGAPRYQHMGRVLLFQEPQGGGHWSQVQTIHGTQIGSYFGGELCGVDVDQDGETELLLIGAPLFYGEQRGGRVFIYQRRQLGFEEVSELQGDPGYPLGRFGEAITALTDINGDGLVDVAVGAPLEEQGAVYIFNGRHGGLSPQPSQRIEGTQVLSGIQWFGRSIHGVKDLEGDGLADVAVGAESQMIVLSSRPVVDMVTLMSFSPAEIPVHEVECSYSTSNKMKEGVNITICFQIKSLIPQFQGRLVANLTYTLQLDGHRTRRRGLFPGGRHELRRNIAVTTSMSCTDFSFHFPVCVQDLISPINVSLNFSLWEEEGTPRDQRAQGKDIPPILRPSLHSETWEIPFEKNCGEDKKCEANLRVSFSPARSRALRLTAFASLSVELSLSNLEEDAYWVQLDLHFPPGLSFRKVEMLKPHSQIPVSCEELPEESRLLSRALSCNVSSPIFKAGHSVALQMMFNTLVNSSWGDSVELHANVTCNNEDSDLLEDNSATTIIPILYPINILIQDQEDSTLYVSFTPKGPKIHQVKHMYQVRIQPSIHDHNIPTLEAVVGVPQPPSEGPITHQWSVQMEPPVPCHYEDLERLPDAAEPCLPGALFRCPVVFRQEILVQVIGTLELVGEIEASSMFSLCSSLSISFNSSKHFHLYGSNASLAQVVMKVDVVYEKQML
T1 sequence (P05107 23-700 limits assumed): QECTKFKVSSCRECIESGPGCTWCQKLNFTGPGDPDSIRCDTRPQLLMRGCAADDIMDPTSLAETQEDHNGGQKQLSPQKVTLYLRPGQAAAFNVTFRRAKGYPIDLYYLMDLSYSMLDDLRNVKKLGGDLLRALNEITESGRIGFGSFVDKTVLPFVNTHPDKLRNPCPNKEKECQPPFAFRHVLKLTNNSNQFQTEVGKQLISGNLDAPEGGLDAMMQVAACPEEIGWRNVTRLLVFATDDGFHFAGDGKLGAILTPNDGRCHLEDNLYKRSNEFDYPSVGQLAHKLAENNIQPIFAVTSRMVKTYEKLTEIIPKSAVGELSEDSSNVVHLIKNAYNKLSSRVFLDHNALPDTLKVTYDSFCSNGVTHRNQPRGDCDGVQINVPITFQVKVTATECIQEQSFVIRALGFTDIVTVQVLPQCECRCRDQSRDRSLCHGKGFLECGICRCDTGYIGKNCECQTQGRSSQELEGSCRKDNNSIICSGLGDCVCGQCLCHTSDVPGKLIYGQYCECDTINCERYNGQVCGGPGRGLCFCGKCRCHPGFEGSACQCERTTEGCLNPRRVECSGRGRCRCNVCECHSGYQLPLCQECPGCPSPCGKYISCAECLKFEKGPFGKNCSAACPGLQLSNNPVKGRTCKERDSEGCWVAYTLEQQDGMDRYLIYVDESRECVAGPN

Row | IC50 (sLFA-1/ICAM-1; [1]) [nM] | IC50 (sLFA-1/ICAM-1; Table 5, read-out: LFA1 Adhesion Assay (IC50 nM)) [nM] | IC50 (sLFA-1/ICAM-1; [2]) [nM] | Compound | AHA1 % KD (AHA1 mRNA) [%] | IC50 (Jurkat Cells/VCAM-1) [nM]
1 | 37 | 74 | ~37 | Cc1cc(C(=O)NCc2cccc(Cl)c2)cc(C)c1C(=O)N[C@@H](CNC(=O)c1cccs1)C(=O)O [compound 142] |  | 
2 | 11 |  | ~11 | O=C(NCc1cccc(O)c1)c1cc(Cl)c(C(=O)N[C@@H](CNC(=O)c2cc(O)cc(O)c2)C(=O)O)c(Cl)c1 [compound 143] |  | 
3 |  |  |  | Duplex-1: AHA1 siRNA duplex without targeting element: Sense-1 GGAuGAAGuGGAGAuuAGudTsdT, Antisense-1 ACuAAUCUCcACUUcAUCCdTsdT (sense GGAUGAAGUGGAGAUUAGUTT; antisense ACUAAUCUCCACUUCAUCCTT; lowercase nucleotides modified, meaning not given here, dTsdT 3' overhang) | 98 | > 200
